Key:
Type in all cases: cell-based
[1] = system: human malignant melanoma A375.S2 cells; test: Cell viability, trypan blue exclusion (A375.S2); details: 24 h, FIG. 1
Protocol: (§1) Human malignant melanoma A375.S2 cell line was obtained from the American Type Culture Collection (ATCC, USA). A375.S2 cells were grown in minimum essential medium supplemented with 10% fetal bovine serum, 100 U/mL of penicillin, and 100 μg/mL of streptomycin (Life Technologies, USA). PC-3 cells (hormone-independent human prostate cancer cells) were cultured in Ham's F12K medium supplemented with 7% fetal bovine serum, 100 U/mL of penicillin, and 100 μg/mL of streptomycin (Life Technologies, USA). Cells were cultured at 37° C. in a 5% CO2 incubator.
(§2) Seeding cells (2.5×10^5 cells/well) in 6-well plates and incubated with different concentrations of M1 (10, 20 and 40 μM), cisplatin (50 μM) or vehicle for 24 h. Cells were detached by trypsinization and the cell numbers were counted by trypan blue exclusion method.
To investigates the effect of M1 on the inhibition of human malignant melanoma cell growth, A375 cells were cultured with various concentration of M1.

[2] = system: human malignant melanoma A375.S2 cells; test: Colony formation assay (A375.S2); details: M1 10, 20 and 40 μM, 10 days; FIG. 2
Protocol: as §1
(§3) Plate 500 cells per well into 6-well plates and incubated with different M1 concentrations (10, 20, and 40 μM) or vehicle for 10 days. Cells were fixed in 4% paraformaldehyde after washing with cold PBS twice, and stained with 0.5% crystal violet 10 min at room temperature.
To investigates the effect of M1 on the reduction of colony formation ability of melanoma cells, A375. S2 cells were subjected to colony formation assay with various concentration of M1.

[3] = system: human malignant melanoma A375.S2 cells; test: Wound healing assay (A375.S2); details: M1 20 or 40 μM, 24 h, vs control; FIG. 3
Protocol: as §1
(§4) Cells were seeded at 6×10^5 into 6-well plates and incubated for 24 h. Then used a sterile 200-μl pipette tip to create a straight gap of constant width, and each well was washed with sterile PBS. Next, the cells were incubated with various concentrations of M1 (10, 20, and 40 μM) or vehicle. The cells were photographed at 0 and 24 h under a microscope at 100× magnification.
To investigates the effect of M1 on the inhibition of migration ability of melanoma cells, A375.S2 cells were subjected to the wound healing assay with various concentration of M1.

[4] = system: human malignant melanoma A375.S2 cells; test: Annexin V/PI apoptosis flow cytometry (A375.S2); details: 24 h, FIG. 4
Protocol: as §1
A375.S2 cells were seeded at 2.5×10^5 into 6-well plates, and incubated with M1 (40 μM), cisplatin (50 μM) or vehicle for 24 h. To perform apoptosis using an Annexin V-FITC/PI apoptosis detection kit (BD Biosciences, USA) according to the manufacturer's instructions, and then analyzed by flow cytometry (BD Biosciences).
(§5) To further investigate mechanism of action of M1, we used Annexin V/PI double staining by flow cytometry and crucial protein expression by Western blot analysis to measured targeting hallmarks of apoptosis.

[5] = system: human malignant melanoma A375.S2 cells; test: Western blot of apoptosis-related proteins (A375.S2); details: A375.S2, M1 10, 20 and 40 μM, 24 h, FIGS. 5A, 5B
Protocol: as §1
(§6) Plate 4×10^5 cells per well into 6-cm dish, and incubated with different concentrations of M1 (10, 20 and 40 μM), cisplatin (50 μM) or vehicle for 24 h. The cells were exacted by disruption in RIPA buffer (Sigma-Aldrich, Germany) in the presence of protease inhibitor cocktail. Each protein sample was run on a 12% SDS-PAGE gel and transferred to PVDF membrane, which was then incubated for 1 h at room temperature in blocking buffer and then overnight at 4° C. with primary antibodies against caspase-3, caspase-9 (Cell Signaling Technology, USA), Bax, Bcl-2 or β-actin (Santa Cruz, USA). The membrane was incubated for 1 h at room temperature with HRP-conjugated secondary antibodies. The proteins were detected using enhanced chemiluminescence reagent (GE, UK).
as §5

[6] = system: human prostate cancer PC-3 cells; test: Cell viability, trypan blue exclusion (PC-3); details: M1 10, 20 and 40 μM, 24 h, dose-dependent; FIG. 6
Protocol: as §1, §2
Plate human prostatic cancer cell line PC-3 2.5×10^5 per 6-well plates and cultured in Ham's F12K medium supplemented with 7% fetal bovine serum, 100 U/mL of penicillin, and 100 μg/mL of streptomycin (Life Technologies, USA). Cells were cultured overnight at 37° C. in a 5% CO2 incubator, and then treated with different concentrations of M1 (10, 20 and 40 μM) or vehicle for 24 h, and the cell numbers were counted by trypan blue exclusion method. […] The data are expressed as the means±SEM for three separate experiments. *p<0.05, **p<0.01. […]

[7] = system: human prostate cancer PC-3 cells; test: Colony formation assay (PC-3); details: M1 10, 20 and 40 μM, 10 days, dose-dependent, vs vehicle; FIG. 7
Protocol: as §1, §3
Seeding 500 cells per 6-well plates and treated for 10 days with different concentrations of M1 (10, 20, and 40 μM) or vehicle. The cells were fixed in 4% paraformaldehyde for 15 min, after washing with cold PBS twice, and stained with 0.5% crystal violet 10 min at room temperature. […] The data are expressed as the means±SEM for three separate experiments. *p<0.05, ***p<0.005. (One-way ANOVA and subsequent Scheffe's test).

[8] = system: human prostate cancer PC-3 cells; test: Wound healing assay (PC-3); details: M1 20 or 40 μM, 24 h, vs vehicle; FIG. 8
Protocol: as §1, §4
Next, we performed whether M1 reduces the migration ability by wound healing assay in PC-3 cells. Cells were seeded at 6×10^5 per 6-well plates in culture medium and were grown overnight at 37° C. in a 5% CO2 incubator. Each well was scratched with sterile 200-μl pipette tip in the cell monolayer, and washed with sterile PBS twice. […] The data are expressed as the means±SEM for three separate experiments. *p<0.05, ***p<0.005. […]

[9] = system: human prostate cancer PC-3 cells; test: Annexin V/PI apoptosis flow cytometry (PC-3); details: M1 40 μM, 24 h, vs vehicle; FIG. 9
Protocol: as §1
(§7) Furthermore, to investigate mechanisms underlying the apoptosis-inducing activity of M1, we detected Annexin V/PI double staining by flow cytometry and apoptosis related protein expression by Western blot. PC-3 cells were plate 2.5×10^5 per 6-well plates, and incubated with M1 (40 μM) or vehicle for 24 h. The cells were harvested by gently trypsinizing and wash with ice-PBS twice, then stained with Annexin V-FITC/PI apoptosis detection kit (BD Biosciences, USA) according to the manufacturer's instructions and measured using a flow cytometer within 1 hour. […] The data are expressed as the means±SEM for three separate experiments. ***p<0.005. (One-way ANOVA and subsequent Scheffe's test).

[10] = system: human prostate cancer PC-3 cells; test: Western blot of apoptosis-related proteins (PC-3); details: PC-3, M1 10, 20 and 40 μM, 24 h, FIGS. 10A, 10B
Protocol: as §1, §6, §7

CC(C)=CCC[C@](C)(O[C@@H]1OC(CO)[C@@H](O)[C@@H](O)C1O)[C@H]1CC[C@]2(C)C1[C@H](O)CC1[C@@]3(C)CC[C@H](O)C(C)(C)C3CC[C@]12C (stereo partly drawn) [M1, 20-O-β-D-glucopyranosyl-20(S)-protopanaxadiol]
cell numbers of A375.S2 cells ([1]; M1 10, 20 and 40 μM, vs control): decreased the cell numbers | numbers of colonies of A375.S2 cells [2]: reduced dose-dependently | cell migration ability of A375.S2 cells [3]: markedly decreased the cell migration ability | percentage of A375.S2 cells with Annexin V/PI double staining ([4]; M1 40 μM): greatly increased the percentage | Bcl-2 protein expression ([5]; dose-dependent): decrease | pro-caspase-3 protein expression ([5]; dose-dependent): decrease | pro-caspase-9 protein expression ([5]; dose-dependent): decrease | levels of caspase-3 [5]: significantly increased | levels of caspase-9 [5]: significantly increased | cell numbers of PC-3 cells [6]: significantly decrease cell numbers | colony formation ability of PC-3 cells [7]: inhibited the colony formation ability | cell migration ability of PC-3 cells [8]: significantly decreased the cell migration ability | percentage of PC-3 cells with Annexin V/PI double staining [9]: greatly increased the percentage | Bax/Bc1-2 ratio ([10]; dose-dependent): increased | protein levels of caspase-9 ([10]; dose-dependent): increased | pro-caspase-3 protein expression [10]: significantly decreased | pro-caspase-9 protein expression [10]: significantly decreased

N.N.[Cl][Pt][Cl] [cisplatin, reference compound]
cell numbers of A375.S2 cells ([1]; cisplatin 50 μM, positive control): decreased the cell numbers | percentage of A375.S2 cells with Annexin V/PI double staining ([4]; cisplatin 50 μM): greatly increased the percentage
